Patent EP0338435A1, “3,4-Dihydroxypyrrolidin-2-one derivatives, process for their preparation, agents containing them and their use as well as the intermediates resulting from the preparation” (HOECHST AKTIENGESELLSCHAFT, priority 1988, dated 1989)
Like-named read-outs stand apart in the source and are kept apart here.

Key:
ECS-Amnesie = test: inhibitory (passive) avoidance test (step-through test), reversal of ECS-induced amnesia; format: in vivo, Mäusen; details: po
Description: (§1) Die Verbindungen der Formel I besitzen wertvolle pharmakologische Eigenschaften, insbesondere nootrope. Die nootrope Wirkung der erfindungsgemäßen Verbindungen wurde an Mäusen, die ein Körpergewicht von 20-25 g besaßen, im inhibitory (passive) avoidance test (step-through-test) geprüft. Eine modifizierte Form der von J. Kopp. Z. Bodanecky und M.E. Jarvik beschriebenen Test-Methode wurde von J. Bures, 0. Buresova und J. Huston im "Techniques and Basic Experiments for the Study of Brain and Benavior", Elsevier Scientific Publishers, Amsterdam 1983, beschrieben.
(§2) Entsprechend diesen Literaturangaben wird eine Substanz dann als nootrop wirksam bezeichnet, wenn sie bei den Versuchstieren die mittels eines electroconvulsiven Schocks erzeugte Amnesie (ECS-Amnesie) bzw. mittels Scopolamin-Injektion erzeugte Amnesie aufzuheben vermag.
(§3) Die Versuche wurden nach modifizierten Test-Methoden mit den erfindungsgemäßen Verbindungen durchgeführt. Als Vergleichsverbindung diente das bekannte Nootropikum 2-0xo-1-pyrrolidinylessigsäurea- mid (Piracetam). Die deutliche Überlegenheit der erfindungsgemäßen Verbindungen über die Vergleichssubstanz zeigte sich darin, daß der amnestische Effekt bereits mit einer MED (minimal effective dose) von 1-10 mg/kg p.o. aufzuheben ist. Die Vergleichssubstanz hat eine MED von ca. 500-1000 mg/kg p.o.

Scopolamin-Amnesie = test: inhibitory (passive) avoidance test (step-through test), reversal of scopolamine-induced amnesia; format: in vivo, Mäusen; details: Mus musculus, po, read-out: Inhibitory avoidance MED mg/kg p.o. Scopolamin-Amnesie
Description: as §1, §2, §3

[1] = Mus musculus, mice 20-25 g, amnesia induced by electroconvulsive shock, read-out: Inhibitory avoidance MED mg/kg p.o. ECS-Amnesie
[2] = mice 20-25 g, amnesia induced by scopolamine injection
[3] = Mus musculus, read-out: Inhibitory avoidance MED mg/kg p.o. ECS-Amnesie

SMILES	minimal effective dose (ECS-Amnesie; [1])	minimal effective dose (Scopolamin-Amnesie; [2])	minimal effective dose (ECS-Amnesie; [3])	also measured
COc1cccc(CN2C[C@@H](O)[C@@H](O)C2=O)c1 [Beispiel 34]	3 mg/kg	1 mg/kg	–	–
Cc1ccc(CN2C[C@@H](O)[C@@H](O)C2=O)cc1 [Beispiel 33]	3 mg/kg	–	–	–
CC(C)N(CCNC(=O)CN1C[C@@H](O)[C@@H](O)C1=O)C(C)C [Beispiel 28, N-[2-(Diisopropylamino)ethyl]-2-[(3R,4R)-3,4-dihydroxypyrrolidin-2-on-1-yl]acetamid]	–	–	10 mg/kg	–
O=C1[C@H](O)[C@H](O)CN1Cc1ccccc1 [Beispiel 29, 1-Benzyl-(3R,4R)-3.4-dihydroxy-pyrrolidin2-on]	3 mg/kg	1 mg/kg	–	–
Nc1ccc(CN2C[C@@H](O)[C@@H](O)C2=O)cc1 [Beispiel 36, 1-(4-Aminobenzyl)-(3R,4R)-3,4-dihydroxypyrrolidin-2-on]	3 mg/kg	–	–	–
NC(=O)CN1CCCC1=O [Piracetam, 2-0xo-1-pyrrolidinylessigsäurea-mid, reference compound]	–	–	1000 mg/kg	minimal effective dose (ECS-Amnesie; read-out: MED (minimal effective dose)): 500 to 1000 mg/kg; minimal effective dose (Scopolamin-Amnesie): 500 mg/kg
